Key:
nAChR α7 receptors = target: T1, nAChR α7 receptors (Homo sapiens, UniProt P36544); assay: Positive modulation of acetylcholine-induced currents at wild-type nAChR α7 receptors expressed in Xenopus laevis oocytes (two-electrode voltage clamp); format: cell-based; conditions: for effect on acetylcholine-induced current amplitude: compound 0.01-31.6 μM applied 30 s before and during 100 μM acetylcholine; for maximal modulation of the acetylcholine response (Imax) / EC50: nAChR α7 in Xenopus oocytes, 100 μM acetylcholine; for maximal modulation of the acetylcholine response (Imax): (test-control)/control*100%; for EC50: clamped at -60 mV, compound 0.01-31.6 μM, read-out: calculated EC50 value for positive modulation of 100 μM acetylcholine responses
T1 construct: expressed in transfected cells; host or cells: Xenopus laevis oocytes
T1 sequence (P36544 23-502): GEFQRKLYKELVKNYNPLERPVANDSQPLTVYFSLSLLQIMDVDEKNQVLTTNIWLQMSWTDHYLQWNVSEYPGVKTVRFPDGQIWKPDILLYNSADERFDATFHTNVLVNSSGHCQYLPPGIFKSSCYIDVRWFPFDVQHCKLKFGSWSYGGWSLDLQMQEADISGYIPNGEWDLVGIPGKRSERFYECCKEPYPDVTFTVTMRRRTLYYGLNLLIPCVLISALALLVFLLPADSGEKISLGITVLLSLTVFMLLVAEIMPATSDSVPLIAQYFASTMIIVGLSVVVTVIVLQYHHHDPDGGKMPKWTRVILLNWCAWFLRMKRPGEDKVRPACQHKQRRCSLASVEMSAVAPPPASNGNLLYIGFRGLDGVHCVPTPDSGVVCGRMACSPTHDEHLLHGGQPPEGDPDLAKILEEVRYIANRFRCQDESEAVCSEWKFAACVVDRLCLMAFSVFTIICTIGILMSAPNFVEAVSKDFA
Description: In this example the positive modulation of wild-type nAChR α7 receptors by Compound 2 (i.e. 4-[5-Amino-6-(2,4-dichloro-phenyl)-pyrimidin-4-yl]-phenol; FIGS. 1A and 1B) and by Compound 6 (i.e. 2′-Amino-5′,2″-difluoro-4″-trifluoromethyl-[1,1′;3′,1″]terphenyl-4-ol; FIGS. 2A and 2B) was determined using nAChR α7 receptors heterologously expressed in Xenopus laevis oocytes.
The electrical current through the nAChR α7 channel was measured using conventional two-electrode voltage clamp and nAChR α7 currents were activated by applying pulses of agonist-containing solution onto the nAChR α7 expressing oocyte.
In brief, the oocytes were placed in a recording chambers and continuously superfused with an Oocyte Ringer (OR) solution containing 90 mM NaCl, 2.5 mM KCl, 2.5 mM CaCl2, 1 mM MgCl2 and 5 mM HEPES (pH adjusted to 7.4). The oocytes were clamped at −60 mV and currents were induced by applying 20 s pulses of 100 μM acetylcholine dissolved in OR. The intervals between the acetylcholine applications were 5 minutes, during which the oocytes were washed with OR. The first three applications were control applications to insure a constant response level of 100 μM acetylcholine.
The positive modulation in the presence of Compound 2 or Compound 6 was calculated as (test-control)/control*100% and the concentration response curve for this positive modulation was fitted to the sigmoidal logistic equation: I=Imax/(1+(EC50/[compound])^n), where Imax represents the maximal modulation of the control response, EC50 is the concentration causing a half maximal response, and n is the slope coefficient.

Work on `COc1ccc(-c2ncnc(-c3ccc(Cl)cc3Cl)c2N)cc1` [Compound 1, 4-(2,4-Dichloro-phenyl)-6-(4-methoxy-phenyl)-pyrimidin-5-ylamine] yielded a melting point of 141.3 to 142.1 °C.

In the case of `Nc1c(-c2ccc(O)cc2)ncnc1-c1ccc(Cl)cc1Cl` [Compound 2, 4-[5-Amino-6-(2,4-dichloro-phenyl)-pyrimidin-4-yl]-phenol], the “effect on acetylcholine-induced current amplitude” value (nAChR α7 receptors) is reported as “robust increase”, the “maximal modulation of the acetylcholine response (Imax)” value (nAChR α7 receptors) is reported as 299% and the EC50 (nAChR α7 receptors) is reported as 1200 nM. The melting point was 97.3 to 98.2 °C.

`COc1ccc(-c2cc(F)cc(-c3ccc(C(F)(F)F)cc3F)c2N)cc1` [Compound 5, 5′,2″-Difluoro-4-methoxy-4″-trifluoromethyl-[1,1′;3′,1″]terphenyl-2′-ylamine] showed a melting point of 85.2 to 86.3 °C.

For `Nc1c(-c2ccc(O)cc2)cc(F)cc1-c1ccc(C(F)(F)F)cc1F` [Compound 6, 2′-Amino-5′,2″-difluoro-4″-trifluoromethyl-[1,1′;3′,1″]terphenyl-4-ol], the “effect on acetylcholine-induced current amplitude” value (nAChR α7 receptors) was “robust increase”, the “maximal modulation of the acetylcholine response (Imax)” value (nAChR α7 receptors) was 361% and the EC50 (nAChR α7 receptors) was 1400 nM. For the same compound, the melting point was 97.8 to 98.9 °C.

`COc1ccc(-c2ncnc(-c3ccc(C(F)(F)F)cc3F)c2N)c(OC)c1` [Compound 7, 4-(2,4-Dimethoxy-phenyl)-6-(2-fluoro-4-trifluoromethyl-phenyl)-pyrimidin-5-ylamine] showed a melting point of 191.5 to 192.8 °C.

`COc1ccc(-c2ncnc(-c3ccc(C(F)(F)F)cc3F)c2N)c(O)c1` [Compound 9, 2-[5-Amino-6-(2-fluoro-4-trifluoromethyl-phenyl)-pyrimidin-4-yl]-5-methoxy-phenol] gave a melting point of 150 to 151.5 °C.

For `Nc1c(-c2ccc3[nH]ccc3c2)ncnc1-c1ccc(C(F)(F)F)cc1F` [Compound 10, 4-(2-Fluoro-4-trifluoromethyl-phenyl)-6-(1H-indol-5-yl)-pyrimidin-5-ylamine], the melting point was 216.1 to 217.8 °C.

In the case of `Nc1c(-c2ccc(S(N)(=O)=O)cc2)ncnc1-c1ccc(C(F)(F)F)cc1F` [Compound 11, 4-[5-Amino-6-(2-fluoro-4-trifluoromethyl-phenyl)-pyrimidin-4-yl]-benzenesulfonamide], the melting point is reported as 174.8 to 176.1 °C.

For `COc1ccc(-c2nc(C)nc(-c3ccc(C(F)(F)F)cc3F)c2N)cc1Cl` [Compound 12, 4-(3-Chloro-4-methoxy-phenyl)-6-(2-fluoro-4-trifluoromethyl-phenyl)-2-methyl-pyrimidin-5-ylamine], the melting point was 104.5 to 105.2 °C.

Compound `COc1ccc(-c2nc(C)nc(-c3ccc(C(F)(F)F)cc3F)c2[N+](=O)[O-])cc1` [Compound 13, 4-(2-Fluoro-4-trifluoromethyl-phenyl)-6-(4-methoxy-phenyl)-2-methyl-5-nitro-pyrimidine] has a melting point of 100.8 to 101.8 °C.

With `Cc1nc(-c2ccc3c(c2)OCO3)c(N)c(-c2ccc(C(F)(F)F)cc2F)n1` [Compound 14, 4-Benzo[1,3]-dioxol-5-yl-6-(2-fluoro-4-trifluoromethyl-phenyl)-2-methyl-pyrimidin-5-ylamine] the melting point was 162.5 to 163.3 °C.

`COc1ccc(-c2nc(C)nc(-c3ccc(C(F)(F)F)cc3F)c2N)cc1` [Compound 15, 4-(2-Fluoro-4-trifluoromethyl-phenyl)-6-(4-methoxy-phenyl)-2-methyl-pyrimidin-5-ylamine] showed a melting point of 129.2 to 130.6 °C.

Compound `Cc1nc(-c2ccc(O)cc2)c(N)c(-c2ccc(C(F)(F)F)cc2F)n1` [Compound 16, 4-[5-Amino-6-(2-fluoro-4-trifluoromethyl-phenyl)-2-methyl-pyrimidin-4-yl]-phenol] has a melting point of 175.4 to 176.9 °C.

With `COc1ccc(-c2nc(N)nc(-c3ccc(C(F)(F)F)cc3F)c2N)cc1` [Compound 17, 4-(2-Fluoro-4-trifluoromethyl-phenyl)-6-(4-methoxy-phenyl)-pyrimidine-2,5-diamine] the melting point was 125.8 to 127.1 °C.

Work on `Nc1nc(-c2ccc(O)cc2)c(N)c(-c2ccc(C(F)(F)F)cc2F)n1` [Compound 18, 4-[2,5-Diamino-6-(2-fluoro-4-trifluoromethyl-phenyl)-pyrimidin-4-yl]-phenol] yielded a melting point of 226.3 to 227.5 °C.

Work on `COc1ccc(-c2cnnc(-c3ccc(C(F)(F)F)cc3F)c2N)cc1` [Compound 19, 3-(2-Fluoro-4-trifluoromethyl-phenyl)-5-(4-methoxy-phenyl)-pyridazin-4-ylamine] yielded a melting point of 215.3 to 216.2 °C.

`Nc1c(-c2ccc(O)cc2)cnnc1-c1ccc(C(F)(F)F)cc1F` [Compound 20, 4-[5-Amino-6-(2-fluoro-4-trifluoromethyl-phenyl)-pyridazin-4-yl]-phenol] showed a melting point of 251 to 252.2 °C.

Compound `COc1ccc(-c2cncc(-c3ccc(C(F)(F)F)cc3F)c2N)cc1` [Compound 21, 3-(2-Fluoro-4-trifluoromethyl-phenyl)-5-(4-methoxy-phenyl)-pyridin-4-ylamine] has a melting point of 169.5 to 170.3 °C.

In the case of `Nc1c(-c2ccc(O)cc2)cncc1-c1ccc(C(F)(F)F)cc1F` [Compound 22, 4-[4-Amino-5-(2-fluoro-4-trifluoromethyl-phenyl)-pyridin-3-yl]-phenol], the melting point is reported as 133.6 to 134.8 °C.

Work on `Nc1c(-c2ccc3[nH]ccc3c2)cncc1-c1ccc(C(F)(F)F)cc1F` [Compound 23, 3-(2-Fluoro-4-trifluoromethyl-phenyl)-5-(1H-indol-5-yl)-pyridin-4-ylamine] yielded a melting point of 103 to 106 °C.

With `Nc1c(-c2ccc(S(N)(=O)=O)cc2)cc(F)cc1-c1ccc(C(F)(F)F)cc1F` [Compound 25, 2′-Amino-5′,2″-difluoro-4″-trifluoromethyl-[1,1′;3′,1″]terphenyl-4-sulfonic acid amide] the melting point was 189.4 to 191.2 °C.
